Experiments:
[1] = test system: IL-6 production in RAW264.7 cells; assay: LPS-induced IL-6 production in RAW264.7 cells (ELISA); assay type: cell-based, mouse; details: for avg / 1 well / 2 well / avg (%): Table 2; for avg / 1 well / 2 well: IL-6 production after LPS; for avg: average of wells; for 1 well: replicate well 1; for 2 well: replicate well 2; for avg (%): relative to LPS (100%)
Description: The inhibitory effect on induced IL-6 cytokine production was analyzed. RAW264.7 cells (obtained from the Korean Cell Line Bank) were seeded at a density of 5×10^5 cells/well in a 12-well plate and stabilized in a CO2 incubator at 37° C. with 5% carbon dioxide and saturated humidity. After 24 hours of incubation, the compounds of the present invention were prepared in DMEM at concentrations of 0 μg/mL or 8 μg/mL and pre-treated for 30 minutes. Next, lipopolysaccharide (LPS, Sigma-Aldrich, Cat No. L2887) was treated to a concentration of 1 μg/mL to induce an inflammatory response for 24 hours. Subsequently, mouse IL-6 ELISA kit (Labiskoma, Cat No. K0331230P) and mouse TNF-α ELISA kit (Labiskoma, Cat No. K0331186P) were used according to the manufacturer's instructions, and absorbance was measured. FK506 (FK-506 monohydrate, manufacturer: MilliporeSigma, product number: F4679, U.S.A) was used as a control substance.
After inducing inflammation as described in (1) and (2) above, the supernatant was collected, and the quantification of IL-6 in the supernatant was performed using the IL-6 ELISA kit (Mouse IL-6 ELISA Kit, pink-ONE, manufactured by Komabiotech, Product No. K0331230P) according to the manufacturer's instructions. Specifically, the amount of IL-6 in the supernatant was quantified according to the ELISA kit protocol, and the absorbance was measured at OD 450 nm using a microplate reader (Multiskan Sky, manufactured by Thermo Fisher Scientific). […] In Table 1 to Table 3, FIG. 1, and FIG. 2, the relative values of IL-6 generated after pretreatment with the compounds of the present invention were expressed as a percentage relative to the IL-6 production (100%) induced by LPS, TNF-α, or IFN-β treatment.

[2] = test system: psoriasis symptoms induced by Aldara cream in BALB/c mice; assay: Aldara cream-induced mouse psoriasis model: skin lesions / PASI score; assay type: in vivo; details: topical 150 μl for 4 days from 4th day, Compound 51 1%, Betamethasone 0.05%, versus Veh
Description: (§1) After dissolving the test substance (Compound 51 of the present invention) using DMSO (Dimethyl sulfoxide, Sigma, Cat No. 472301), an appropriate concentration was prepared with PBS (HyClone, Cat No. SH30028.02). The transdermal test substance was prepared by dissolving the test substance in 100% ethanol (Medchem, Cat No. HY-13571). Betamethasone dipropionate (Sigma, Cat No. D1756, Lot No. BCBW7684), a positive control, was dissolved in DMSO, and PEG400 (Sigma, Cat. No. 06855) and 30% ethanol (Daejung, Cat. No. 4023-4100) were added to the mixture obtained above. The same vehicle was used for the negative control in the same way as the positive control specimen preparation.
BALB/c mice (purchased through JA BIO, 27 males, 8 weeks old) were acclimatized for one week. After the mice were anesthetized with isoflurane 3 days before the application of Aldara cream, the hair on the back (3×3 cm) was removed using a clipper. The remaining hair was completely removed by leaving the hair removal cream for 1 minute. The mice were left for 72 hours to heal the wounds. To induce psoriasis, Aldera Cream (5% Imiquimod, Dong-A ST) 62.5 mg was applied at the same time point (AM 10:00) once/day 7 times, and 150 μl of test substance or positive control was applied from the 4th day at the same time point (PM 14:00) for 4 days. The composition of each test group was as follows. a) Con: Normal+excipient application group: 8 animals; b) Veh: Aldara cream+excipient application group: 8 animals; c) Beta: Aldara+Betamethasone 0.05% applied group: 8 animals; and d) Compound 51 1%: Aldara+Compound 51 1% application group: 3 animals. The autopsy proceeded in a non-fasting state, and the dorsal skin was removed from each mouse, rapidly frozen in liquid nitrogen, and stored at −80° C. before for the subsequent experiments.
After taking pictures on the 0th, 4th, and 8th days to measure the skin index values, they were visually observed and recorded to measure the degree of skin lesions on the dorsal area. The condition of psoriasis skin lesions in each group was scored according to the evaluation index (erythema, skin thickness, dead skin cells) as None (0), Weak (1), Moderate (2), Severe (3), Very Severe (4) and set the score, and by summing up the scores of the three items, an evaluation score between a minimum of 0 and a maximum of 12 was calculated. […] After taking pictures in all groups on the 0th, 4th and 8th days, the evaluation indexes (erythema, skin thickness, and dead skin cells) of the psoriasis skin lesions in each group were graphed.

[3] = test system: psoriasis symptoms induced by Aldara cream in BALB/c mice; assay: Aldara cream-induced mouse psoriasis model: evaluation of scratching; assay type: in vivo; details: 8th day; topical; Compound 51 1%, Betamethasone 0.05%; versus Veh
Description: as §1
(§2) BALB/c mice (purchased through JA BIO, 27 males, 8 weeks old) were acclimatized for one week. After the mice were anesthetized with isoflurane 3 days before the application of Aldara cream, the hair on the back (3×3 cm) was removed using a clipper. The remaining hair was completely removed by leaving the hair removal cream for 1 minute. The mice were left for 72 hours to heal the wounds. To induce psoriasis, Aldera Cream (5% Imiquimod, Dong-A ST) 62.5 mg was applied at the same time point (AM 10:00) once/day 7 times, and 150 μl of test substance or positive control was applied from the 4th day at the same time point (PM 14:00) for 4 days. […]

[4] = test system: psoriasis-related cytokine genes IL-17A, IL-17F, IL-23A (p19), IL-12A (p35), IL-12B (p40), IL-1β; assay: Aldara cream-induced mouse psoriasis model: qRT-PCR of dorsal skin; assay type: in vivo; details: dorsal skin RNA, normalized to 18s rRNA; topical; Compound 51 1%, Betamethasone 0.05%; versus Veh
Description: as §1, §2

[5] = test system: TSLP in HaCaT keratinocytes; details: 8 μg/ml, 1 h pre-treatment, TNF-α 100 ng/ml 24 h; compared to the control group FK506
Description: (§3) HaCaT keratinocytes, a human skin keratinocyte cell line (obtained from the Korean Cell Line Bank), were seeded in a 12-well plate at a density of 1×10^5 cells per well and cultured for at least 12 hours in a 37° C. humidified incubator containing 5% carbon dioxide and saturated water vapor. After pre-treatment with the compound 77 of the present invention (0 μg/ml or 8 μg/ml) or the immunosuppressant FK506 (FK-506 monohydrate, manufacturer: MilliporeSigma product number: F4679, USA) as a control for 1 hour, TNF-α (Tumor Necrosis Factor-α human, manufacturer: MilliporeSigma) was treated for 24 hours as an inflammatory response inducer at a concentration of 100 ng/ml. Next, the supernatant was obtained and TSLP and IL-6 ELISA (Human TSLP and IL-6 ELISA Kit, pink-ONE, manufacturer: Komabiotech) each was performed. Specifically, the contents of TSLP and IL-6 in the supernatant were quantified according to the protocol of the ELISA kit with the supernatant, and absorbance was measured at a wavelength of 450 nm using a microplate reader (Multiskan Sky, manufacturer: Thermo Fisher Scientific, product number: 51119600DP).

[6] = test system: interleukin-6 in HaCaT keratinocytes; details: 8 μg/ml, 1 h pre-treatment, TNF-α 100 ng/ml 24 h; compared to the control group FK506
Description: as §3

Structure (SMILES) | avg ([1]; compound at 2 μg/ml) | avg ([1]; compound at 4 μg/ml) | 1 well ([1]; compound at 2 μg/ml) | 1 well ([1]; compound at 4 μg/ml) | 2 well ([1]; compound at 2 μg/ml) | 2 well ([1]; compound at 4 μg/ml) | avg (%) ([1]; compound at 2 μg/ml) | avg (%) ([1]; compound at 4 μg/ml) | skin lesions (pictures, visual) ([2]; 8th day) | PASI Score ([2]; p<0.001) | pruritus (scratching counts, 30 minutes) [3] | psoriasis-related cytokine genes (IL-17A, IL-17F, IL-23A (p19), IL-12A (p35), IL-12B (p40), IL-1β) expression [4] | IL-6 ([1]; Table 1, LPS 1 μg/mL 24 h, compound 77 at 8 μg/ml, FK506 concentration not given) | IL-6 (%) ([1]; Table 1, relative to IL-6 production induced by LPS (100%), compound 77 at 8 μg/ml, FK506 concentration not given) | Relative amount of IL-6 compared to LPS induction (%) ([1]; Table 3, LPS 1 μg/mL 24 h, compounds at 8 μg/mL (FIG. 1), LPS alone = 100%) | amount of TSLP [5] | amount of interleukin-6 [6]
CCCC(NC)C(=O)NCc1ccc(-c2ccc(Cl)c(Cl)c2)cc1.Cl (racemic) [Compound 51, (R)/(S)—N-((3′,4′-dichloro-[1,1′-biphenyl]-4-yl)methyl)-2-(methylamino)pentanamide hydrochloride] | 2615.50 | 586.95 | 2815.00 | 669.30 | 2416.00 | 504.60 | 56.11% | 12.59% | visually improved | significantly decreased | tendency to decrease pruritus | significantly reduced | – | – | – | – | –
CCCC(N)C(=O)NCCc1ccc(-c2ccc(C(F)(F)F)cc2)cc1.Cl (racemic) [Compound 77, (R)/(S)-2-amino-N-(2-(4′-(trifluoromethyl)-[1,1′-biphenyl]-4-yl)ethyl)pentanamide hydrochloride] | – | – | – | – | – | – | – | – | – | – | – | – | 191.20 pg/mL | 13.19% | 5% | significantly reduced | significantly reduced
